Measured values as given in PubChem BioAssay (NCI).
Values joined by “and” are separate entries in the source; they are usually repeats but may differ in a detail not shown here. Identical values can stand only once.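 Five concentrations, 48 hours, 96-well plates. GI50 marks 50% less growth. The concentration for full growth arrest is given as TGI.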

Tests used:
Assay in all cases: DTP human tumour cell line panel, 48 h
[1] = test system: COLO 205 colon
[2] = test system: KM12 colon
[3] = test system: CAKI-1 renal
[4] = test system: ACHN renal
[5] = test system: MDA-MB-231 breast
[6] = test system: CCRF-CEM leukemia
[7] = test system: NCI-H460 lung
[8] = test system: MOLT-4 leukemia
[9] = test system: RPMI-8226 leukemia
[10] = test system: PC-3 prostate

| SMILES | GI50 [1] | TGI [1] | GI50 [2] | TGI [2] | GI50 [3] | TGI [3] | GI50 [4] | TGI [4] | GI50 [5] | TGI [5] | GI50 [6] | TGI [6] | GI50 [7] | TGI [7] | GI50 [8] | TGI [8] | GI50 [9] | TGI [9] | GI50 [10] | TGI [10] |
| --- | --- | --- | --- | --- | --- | --- | --- | --- | --- | --- | --- | --- | --- | --- | --- | --- | --- | --- | --- | --- |
| CCCCC(CCCCCC(CCCC)NCc1ccc2c(c1)OCO2)NCc1ccc2c(c1)OCO2 (stereo not given) | 0.189 µM | 0.35 µM | 0.232 µM | 0.51 µM | 0.669 µM | 1.76 µM | 1.17 µM | 2.4 µM | 0.539 µM | 1.83 µM | 0.524 µM | 2.58 µM | 0.236 µM | 0.519 µM | 0.262 µM | 0.653 µM | 0.276 µM | 0.805 µM | 1.01 µM | 2.53 µM |
| COc1cc(OC)c(C(=O)c2cccs2)cc1N | – | > 100 µM | – | > 100 µM | – | > 100 µM | – | > 100 µM | – | – | – | > 100 µM | – | > 100 µM | – | > 100 µM | – | > 100 µM | – | – |
| CN1CN(C2OC(CO)C(O)C2O)c2nc(N)[nH]c(=O)c21 (stereo not given) | – | > 100 µM | – | > 100 µM | – | > 100 µM | – | > 100 µM | – | – | – | – | – | > 100 µM | – | > 100 µM | – | > 100 µM | – | – |
| CCOC(=O)C(=O)Nc1nc2c(OCC)cccc2s1 | – | > 100 µM | – | > 100 µM | – | > 100 µM | – | > 100 µM | – | – | – | – | – | > 100 µM | – | > 100 µM | – | > 100 µM | – | – |
| O=S(=O)([O-])c1ccc(N=Cc2ccccc2[O-])cc1.O=S(=O)([O-])c1ccc(N=Cc2ccccc2[O-])cc1.[Co+2] | > 100 µM | > 100 µM | > 100 µM | > 100 µM | – | – | > 100 µM | > 100 µM | – | – | 15.5 µM | > 100 µM | – | – | 21.7 µM | > 100 µM | 96.8 µM | > 100 µM | – | – |
| CN(C)CCN1C(=O)c2cccc3cc([N+](=O)[O-])cc(c23)C1=O | – | 9.56 µM | – | 4.28 µM | – | 1.76 µM | – | – | – | 14.6 µM | – | 0.798 µM | – | 0.384 µM | – | 2.04 µM | – | 10.2 µM | – | 3.49 µM |
| CC(C)C12Cc3c(ccc4ccccc34)OC1(C)Oc1ccc3ccccc3c1C2 (stereo not given) | – | > 100 µM | – | > 100 µM | – | > 100 µM | – | > 100 µM | – | – | – | > 100 µM | – | > 100 µM | – | > 100 µM | – | – | – | – |
| CC(=O)OC1CCC2(C)C(CCC3C2CC(=O)C2(C)C3CC(N3CC3)C2C(C)=O)C1 (stereo not given) | – | 35.7 µM | – | 43.4 µM | – | 34.6 µM | – | 29.6 µM | – | 38.1 µM | – | – | – | 33.9 µM | – | 34.4 µM | – | 83.6 µM | – | 30 µM |
| N/N=C1\C(=O)N(Cc2ccccc2)C(=O)C1C(=O)NCc1ccccc1 (stereo not given) | – | > 100 µM | – | > 100 µM | – | – | – | > 100 µM | – | – | – | > 100 µM | – | > 100 µM | – | > 100 µM | – | > 100 µM | – | – |
| CSCS(=O)C[C@H](CO)NC(=O)/C=C/c1c(C)[nH]c(=O)[nH]c1=O (stereo not given in full) | 3.16 µM | – | 1.95 µM | 7.6 µM and 3.98 µM | 2.74 µM | – | – | 6.86 µM | – | – | 1.46 µM | 8.69 µM and 4.02 µM | 1.19 µM | > 27.6 µM and 7.55 µM | – | 6.73 µM and 5.09 µM | – | 6.71 µM | – | – |
| Cc1ccc(-c2nc3ccccc3c(=O)n2NCC2(O)OCC(O)C(O)C2O)cc1 (stereo not given) | – | > 100 µM | – | > 100 µM | – | > 100 µM | – | > 100 µM | – | – | – | > 100 µM | – | > 100 µM | – | > 100 µM | – | > 100 µM | – | – |
